In patent publication US6579881B2 (Eisai Co., Ltd., priority 1997, dated 2003):
Structures can show the parent of a compound that is named as a salt.

Legend:
[1] = molecular target: T1, serotonin 1A receptor (Rattus norvegicus, UniProt P19327); assay: Binding test on [3H] 8-hydroxy-dipropylaminotetralin (serotonin 1A receptor); details: [3H] 8-OH-DPAT 0.5 nM, receptor fraction of rat hippocampus; read-out: 5HT1a
T1 construct: To the receptor fraction of the hippocampus were added a test compound and 0.5 nM of [^3H]; 8-hydroxy-dipropylaminotetralin; from tissue; host or cells: SD rat hippocampus, membrane (receptor) fraction
T1 sequence (P19327 1-422): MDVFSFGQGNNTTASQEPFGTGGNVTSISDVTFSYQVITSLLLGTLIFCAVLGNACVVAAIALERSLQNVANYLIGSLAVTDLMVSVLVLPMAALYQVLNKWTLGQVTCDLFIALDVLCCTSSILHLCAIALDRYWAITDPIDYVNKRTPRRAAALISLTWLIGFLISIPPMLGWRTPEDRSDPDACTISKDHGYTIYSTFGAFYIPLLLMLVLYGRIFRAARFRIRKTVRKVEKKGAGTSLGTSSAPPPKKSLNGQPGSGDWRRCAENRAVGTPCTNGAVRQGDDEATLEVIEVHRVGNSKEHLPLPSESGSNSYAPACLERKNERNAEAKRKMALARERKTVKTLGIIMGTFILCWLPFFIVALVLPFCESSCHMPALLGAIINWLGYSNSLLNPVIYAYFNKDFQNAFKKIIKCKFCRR

[2] = molecular target: serotonin 2 receptor (Rattus norvegicus, UniProt P14842); assay: Binding test on [3H] ketanserin (serotonin 2 receptor); details: [3H] ketanserin 0.3 nM, receptor fraction of rat cerebral cortex; read-out: 5HT2
serotonin 2 receptor, sequence (P14842 whole entry): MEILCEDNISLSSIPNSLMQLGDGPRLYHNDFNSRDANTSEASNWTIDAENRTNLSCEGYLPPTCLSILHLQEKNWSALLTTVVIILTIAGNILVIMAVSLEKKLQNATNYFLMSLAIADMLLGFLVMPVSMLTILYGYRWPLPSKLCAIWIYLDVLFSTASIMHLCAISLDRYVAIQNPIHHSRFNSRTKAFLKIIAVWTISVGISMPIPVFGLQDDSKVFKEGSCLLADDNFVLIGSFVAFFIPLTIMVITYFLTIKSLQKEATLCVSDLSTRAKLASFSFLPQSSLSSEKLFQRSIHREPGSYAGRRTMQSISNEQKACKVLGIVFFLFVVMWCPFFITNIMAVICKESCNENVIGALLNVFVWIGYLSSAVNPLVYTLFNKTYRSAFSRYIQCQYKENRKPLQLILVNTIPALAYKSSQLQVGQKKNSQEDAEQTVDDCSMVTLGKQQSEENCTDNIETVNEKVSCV

Row | SMILES | Ki [1] | Ki [2]
1 | Fc1ccc(CCN2CCC(N3CCc4ccc(-c5ccc(F)cc5)cc43)CC2)cc1 [Example 201, 1-[1-(4-fluorophenethyl)piperidin-4-yl]-6-(4-fluorophenyl)indoline] | 7.05 nM | > 200 nM
2 | NC(=O)c1ccc(CCN2CCC(N3CCc4ccccc43)CC2)cc1 [Example 40, 1-[1-(4-carbamoylphenethyl)piperidin-4-yl]indoline] | 43.7 nM | > 200 nM
3 | N#Cc1ncc(CCN2CCC(N3CCc4ccccc43)CC2)s1 [Example 66] | 50.9 nM | 85 nM
4 | CC(=O)Nc1ccc(CCN2CCC(N3CCc4ccccc43)CC2)cc1 [Example 32, 1-[1-(4-acetamidophenethyl)piperidin-4-yl]indoline] | 30.2 nM | 30.2 nM
5 | COc1cncc(CCN2CCC(N3CCc4ccccc43)CC2)c1 [Example 53, 1-{1-[2-(3-methoxypyridin-5-yl)ethyl]piperidin-4-yl}indoline] | 21.5 nM | 2.1 nM
6 | CCC(O)c1ccc2c(c1)N(C1CCN(CCc3ccc(F)cc3)CC1)CC2 (stereo not drawn) [Example 138, 1-[1-(4-fluorophenethyl)piperidin-4-yl]-6-(1-hydroxypropyl)indoline] | 1.98 nM | 5.93 nM
7 | COc1ccc2c(c1)C(N1CCN(CC(=O)c3ccc(F)cc3)CC1)CCC2 (stereo not drawn) [Example 281, 1-{4-[2-(4-fluorophenyl)-2-oxoethyl]piperazin-1-yl}-7-methoxy-1,2,3,4-tetrahydronaphthalene Hydrochloride] | 35.2 nM | 11.2 nM
8 | OCCOc1cccc(CCN2CCC(N3CCc4ccccc43)CC2)c1 [Example 43, 1-{3-[(2-hydroxyethoxy)phenethyl]piperidin-4-yl}indoline] | 4.2 nM | 37.9 nM
9 | OC[C@H]1CN(CCc2ccc(F)cc2)CC[C@@H]1N1CCc2ccccc21 (relative stereo) [Example 82, trans-1-[1-(4-fluorophenethyl)-3-hydroxymethylpiperidin-4-yl]indoline] | 71.2 nM | 5.3 nM
10 | CCN1CCC(N2CC(c3ccc(OC)cc3)c3ccccc32)CC1 (stereo not drawn) [Example 241, 1-(1-ethylpiperidin-4-yl)-3-(4-methoxyphenyl)indoline] | 360 nM | 1660 nM
11 | COc1ccc2c(c1)CCN2C1CCN(CCc2ccc(F)cc2)CC1 [Example 99, 1-[1-(4-fluorophenethyl)piperidin-4-yl]-5-methoxyindoline] | – | 8.7 nM
12 | CC(O)c1ccc(CCN2CCC(N3CCc4ccccc43)CC2)cc1 (stereo not drawn) [Example 25, 1-{4-[(1-hydroxyethyl)phenethyl]piperidin-4-yl}indoline] | 8.3 nM | 13.1 nM
13 | Brc1ccc(CCN2CCC(N3CCc4ccccc43)CC2)cc1 [Example 4, 1-[1-(4-bromophenethyl)piperidin-4-yl]indoline] | 6 nM | 24.9 nM
14 | OCc1ccc(CCN2CCC(N3CCc4ccccc43)CC2)cc1CO [Example 45, 1-{1-[3,4-di(hydroxymethyl)phenethyl]piperidin-4-yl}indoline] | 15.2 nM | 6.4 nM
15 | CN1CCC(N2CCc3ccc(NS(=O)(=O)c4ccc(F)cc4)cc32)CC1 [Example 237, 1-(1-methylpiperidin-4-yl)-6-(4-fluorobenzenesulfonylamino)indoline] | 30.4 nM | > 200 nM
16 | c1ccc2c(c1)CCN2C1CCN(CCc2ccncc2)CC1 [Example 49, 1-{1-[2-(4-pyridyl)ethyl]piperidin-4-yl}indoline] | 54.5 nM | 29.9 nM
17 | COc1ccc(CCN2CCC(N3CCc4ccc(F)cc43)CC2)cc1 [Example 229, 1-[1-(4-methoxyphenethyl)piperidin-4-yl]-6-fluoroindoline] | 2.5 nM | > 200 nM
18 | Fc1ccc(CCN2CCC(N3CCc4ccc(CC5CCNCC5)cc43)CC2)cc1 [Example 167, 1-[1-(4-fluorophenethyl)piperidin-4-yl]-6-[(piperidin-4-yl)methyl]indoline] | 6.49 nM | 18.4 nM
19 | NC(=S)Cc1ccc2c(c1)N(C1CCN(CCc3ccc(F)cc3)CC1)CC2 [Example 129, 1-[1-(4-fluorophenethyl)piperidin-4-yl]-6-thiocarbamoylmethylindoline] | 0.95 nM | 0.65 nM
20 | CC(C)(C)NC(=O)Cc1ccc2c(c1)N(C1CCN(CCc3ccc(F)cc3)CC1)CC2 [Example 153, 1-[1-(4-fluorophenethyl)piperidin-4-yl]-6-(t-butylcarbamoylmethyl)indoline] | 15.5 nM | 4.24 nM
21 | OCc1ccc(CCN2CCC(N3CCc4ccccc43)CC2)cc1 [Example 23, 1-[1-(4-hydroxymethylphenethyl)piperidin-4-yl]indoline] | 7.4 nM | 14.6 nM
22 | O=C(Cc1ccc2c(c1)N(C1CCN(CCc3ccc(F)cc3)CC1)CC2)NC1CC1 [Example 154, 1-[1-(4-fluorophenethyl)piperidin-4-yl]-6-(cyclopropylcarbamoylmethyl)indoline] | 6.52 nM | –
23 | OC[C@@H]1CN(CCc2ccc(F)cc2)CC[C@@H]1N1CCc2ccccc21 (relative stereo) [Example 81, cis-1-[1-(4-fluorophenethyl)-3-hydroxymethylpiperidin-4-yl]indoline] | 44.3 nM | –

Second part, the molecule after the results:

Row | Ki [1] | Ki [2] | SMILES
24 | > 200 nM | 3.9 nM | OCCOc1ccc2c(c1)CCCC2C1CCN(CCc2ccc(F)cc2)CC1 (stereo not drawn) [Example 278, 1-[2-(4-fluorophenyl)ethyl]-4-[6-(2-hydroxy)ethoxy-1,2,3,4-tetrahydronaphthalen-1-yl]piperidine]
25 | 0.49 nM | 0.33 nM | O=c1ccc(C(O)c2ccc3c(c2)N(C2CCN(CCc4ccc(F)cc4)CC2)CC3)c[nH]1 (stereo not drawn) [Example 190, 1-[1-(4-fluorophenethyl)piperidin-4-yl]-6-[1-hydroxy-1-(2-pyridon-5-yl)methyl]indoline]
26 | 2.57 nM | 5.13 nM | O=C1CCCN1Cc1ccc2c(c1)N(C1CCN(CCc3ccc(F)cc3)CC1)CC2 [Example 202, 1-[1-(4-fluorophenethyl)piperidin-4-yl]-6-(2-pyrrolidon-1-yl)methylindoline]
27 | 16.4 nM | 13.8 nM | CCN1CCC(Cc2ccc3c(c2)N(C2CCN(CCc4ccc(F)cc4)CC2)CC3)CC1 [Example 169, 1-[1-(4-fluorophenethyl)piperidin-4-yl]-6-[(1-ethylpiperidin-4-yl)methyl]indoline]
28 | 0.2 nM | 0.1 nM | CC(=O)NCc1ccc(CCN2CCC(n3ccc4ccccc43)CC2)cc1 [Example 288, 1-[1-(4-acetamidomethylphenethyl)piperidin-4-yl]indole]
29 | 1.1 nM | 3.3 nM | Fc1ccc(CCN2CCC(N3CCc4cc5scnc5cc43)CC2)cc1 [Example 234, 1-[1-(4-fluorophenethyl)piperidin-4-yl]thiazolo[5,4-f]indoline]
30 | 0.6 nM | 5.9 nM | Fc1ccc(CCN2CCC(N3CCc4ccc(Cl)nc43)CC2)cc1 [Example 259, 1-[1-(4-fluorophenethyl)piperidin-4-yl]-6-chloro-7-azaindoline]
31 | 1.18 nM | 3.86 nM | O=C(c1cccnc1)c1ccc2c(c1)N(C1CCN(CCc3ccc(F)cc3)CC1)CC2 [Example 183, 1-[1-(4-fluorophenethyl)piperidin-4-yl]-6-(3-pyridylcarbonyl)indoline]
32 | 0.06 nM | 70.1 nM | Cn1cccc1-c1ccc2c(c1)N(C1CCN(CCc3ccc(F)cc3)CC1)CC2 [Example 173, 1-[1-(4-fluorophenethyl)piperidin-4-yl]-6-(1-methylpyrrol-2-yl)indoline]
33 | 31.6 nM | 22.6 nM | CC1CC(C2CCN(CCc3ccc(F)cc3)CC2)c2nccnc21 (mixture of isomers) [Example 266, 5-[1-(4-fluorophenethyl)piperidin-4-yl]-7-methyl-5,6-dihydro-5H-cyclopentapyrazine]
34 | 5.74 nM | 7.61 nM | NC(=O)Cc1ccc2c(c1)N(C1CCN(CCc3ccc(F)cc3F)CC1)CC2 [Example 225, 1-[1-(2,4-difluorophenethyl)piperidin-4-yl]-6-carbamoylmethylindoline]
35 | > 200 nM | 11.2 nM | CCN1CCC(N2CC(Cc3cccnc3)c3ccccc32)CC1 (stereo not drawn) [Example 245, 1-(1-ethylpiperidin-4-yl)-3-(3-pyridylmethyl)indoline]
36 | 1.5 nM | 2.1 nM | Fc1ccc(CCN2CCC(N3CCc4ccc(Cl)nc43)CC2)c(F)c1 [Example 262, 1-[1-(2,4-difluorophenethyl)piperidin-4-yl]-6-chloro-7-azaindoline]
37 | 3.5 nM | 0.9 nM | Fc1ccc(CCN2CCC(N3CCc4ccc(Cc5nccs5)cc43)CC2)cc1 [Example 214, 1-[1-(4-fluorophenethyl)-piperidin-4-yl]-6-(2-thiazolyl)methylindoline]
38 | 1.49 nM | 0.35 nM | Fc1ccc(CCN2CCC(N3CCc4ccc(Cc5ccccn5)cc43)CC2)cc1 [Example 175, 1-[1-(4-fluorophenethyl)piperidin-4-yl]-6-[1-(2-pyridyl)methyl]indoline]
39 | > 200 nM | 2.5 nM | CCN1CCC(N2CC(Cc3ccc(F)cc3)c3ccccc32)CC1 (stereo not drawn) [Example 244, 1-(1-ethylpiperidin-4-yl)-3-(4-fluorobenzyl)indoline]
